In patent publication US20250161295A1, “EXATECAN FORMULATION” (Yale University, priority 2022, published 2025):
Where a name gives a salt, the structure may show the parent alone.

Assays:
[1] = test system: SCC tumors (PDVC57 cells); experiment: Intratumoral injection of exatecan in PDVC57 SCC tumors (Example 1, Experiments 1 and 2): tumor outcome; type: in vivo, C57BL/6J mice
Procedure: (§1) Exatecan mesylate (“EXA”) (DX895If; MedChemExpress #HY-13631A) was dissolved in sterile dH20 (Invitrogen 10977-023) to prepare a 5 mg/mL or a 10 mg/mL stock solution. […] The concentration was confirmed by HPLC and further dilutions prepared as needed in sterile dH2O.
Control groups received an equal volume of sterile dH2O.
16 days post-treatment, when the first vehicle control tumors reached 1 cm in one dimension, half (N=5) of each group was harvested for histology: tumors were measured, ranked by volume (V=(½)(W^2×L)), and every-other one harvested (#1, 3, 5, 7, and 9 were harvested and #2, 4, 6, 8, and 10 were not).

[2] = pH-dependent exatecan mesylate solubility in phosphate buffers (precipitate rating); type: physicochemical; design: key to Precipitate rating (Yes/No): Precipitate rating “Yes” means visible precipitate observed at 10× magnification; “No” means no visible precipitate observed at 10× magnification
Procedure: Materials and methods A water-based formulation was made containing exatecan mesylate at a concentration of 10 mg/mL exatecan mesylate in water (Invitrogen UltraPure Distilled Water #10977-015). Phosphate buffers A and B were made by dissolving either 1M potassium phosphate monobasic (KH2PO4) for buffer A or 1M potassium phosphate dibasic ([…]) for buffer B in distilled water. Solutions with pH values ranging between 4.3 and 9.6 were prepared by mixing buffer A (pH 4.3) with buffer B (pH 9.6) at pre-determined percentages. A pH meter was used to confirm the pH of the resulting phosphate buffer solutions by dipping the electrode into the solution.
To determine the pH solubility of the water-based formulation, 5 μL of the 10 mg/mL EXA in DI water was added to 100 μL 1M phosphate buffer at varying pH levels in a 96-well plate to produce a final concentration of […] EXA per milliliter. The solubility tests were conducted at pH 4.30 (0% buffer B), pH 5.6 (10% buffer B), pH 6.1 (20% buffer B), pH 6.4 (30% buffer B), pH 6.7 (40% buffer B), pH 7.0 (50% buffer B), pH 7.2 (60% buffer B), pH 7.5 (70% buffer B), pH 7.8 (80% buffer B), pH 8.2 (90% buffer B) and pH 9.6 (100% buffer B). Precipitation was assessed and images of the precipitate at the bottom of the 96-well plate were taken after 1 hour.

[3] = Dissolution of exatecan mesylate in sterile dH2O (stock preparation); type: physicochemical
Procedure: as §1

[4] = test system: PDVC57 cells (SCC tumors); experiment: Single intratumoral injection of water-based exatecan mesylate formulation in mouse model of SCC (Example 3); type: in vivo, C57BL/6J mice
Procedure: Six-week old female C57BL/6J mice were used in this study.
PDVC57 cells were developed in, and obtained from, the laboratory of Dr. Allan Balmain (Quintanilla, et al., Carcinogenesis 1991, 12 (10), 1875-1881). Mice were anesthetized with avertin and their flanks shaved. The mice were then given an intradermal injection with of 5 million PDVC57 cells in suspension in 100 μL PBS. A 1 cc syringe fitted with a 27 g needle was used for the intradermal injection.
Seven days following tumor cell inoculation, the mice were given either a single intratumoral injection of 10 mg/mL exatecan mesylate in ultrapure distilled water (Invitrogen, Catalog #10977-015) or a vehicle injection using a BD insulin syringe (30-gauge×8 mm needle; #328468). The vehicle was invitrogen UltraPure Distilled Water #10977-015. The treatment volume was 0.02 mL.
Mice were sedated. Calipers were used to measure tumor diameter. Tumor volume was calculated from micrometer measurements using the following formula: […]
When tumors reached the endpoint, i.e., tumor volume of 1 cm^3, mice were euthanized by isoflurane inhalation and tumors dissected away from subcutaneous tissue. Isolated tumors were bisected along the longest axis, fixed in 10% neutral buffered fonnalin and submitted to Yale Research Pathology for embedding, sectioning, and H&E staining. Resulting slides were scanned using a Zeiss AxioObserver Z1 with TissueGnostics TissueFAXS software. Images were analyzed using Fiji software.
In a first experiment, 20 mice with tumors ranging in size from 45-85 mm^3 were examined. The group size was 10. Ten of the mice were given a single injection of a water-based formulation containing exatecan mesylate (10 mg/mL), while the other 10 mice received a vehicle injection of ultrapure DI water and served as the control group. For each group (experimental group or control), half of the mice were harvested 16 days post-treatment for histological assessment, the other half were harvested 32 days post-treatment if they had discernible tumors or monitored until day 66 if no palpable tumors were observed.

[5] = test system: PDVC57 cells (SCC tumors); experiment: Single intratumoral injection of water-based exatecan mesylate formulation, followed to endpoint tumor volume 1 cm^3 (Example 4); type: in vivo, C57BL/6J mice
Procedure: In a second experiment, 15 mice with tumors ranging in size from 50-100 mm^3, calculated as described above, were examined.
PDVC57 cells were injected into 6-week-old female C57BL/6J mice. Treatment was administered by a single intratumoral injection seven days after tumor cell inoculation. Intratumoral injection was performed using BD insulin syringe (30-gauge×8 mm needle; #328468). The vehicle was Invitrogen UltraPure Distilled Water #10977-015.
The experimental group received 10 mg/mL exatecan. The treatment volume was 0.02 mL. Ten of the mice were given a single injection of a water-based formulation containing exatecan mesylate while the other 5 mice received a vehicle injection of ultrapure DI water and served as the control group. These mice were observed until the endpoint at which their tumor volume was 1 cm^3. […]

[6] = test system: PDVC57 cells (SCC tumors); experiment: Titrated doses of a single injection of water-based exatecan mesylate formulation on tumor size (Example 5); type: in vivo, C57BL/6J mice
Procedure: In a third experiment, 15 mice (i.e., five groups each containing three mice) with tumors ranging in size 59-80 mm^3, calculated as described above, were examined. PDVC57 cells were injected into 6-week-old female C57BL/6J mice. Treatment was administered seven days after tumor cell inoculation. Intratumoral injection performed using BD insulin syringe (30-gauge×8 mm needle; #328468). Mice were randomly assigned to one of five groups and were given a single intratumoral injection of either the vehicle (UltraPure Distilled Water, Invitrogen, #10977-015) or one of the following concentrations of the water-based formulation containing exatecan mesylate: 10 mg/mL, 5 mg/mL, 2.5 mg/mL or 1.25 mg/mL for a total treatment volume of 0.02 mL. All the mice were harvested 14 days post treatment for histological assessments.

[7] = test system: ID8-Luc tumor cells; experiment: BNP-111 in vivo efficacy in ID8 ovarian cancer model (IVIS tumor burden); design: species or system C57Bl/6 mice; conditions: 2.5 mpk i.p. once weekly x4; day 56
Procedure: Luciferase expressing ID8-Luc tumor cells were washed twice in sterile PBS, resuspended in sterile PBS and a 1 ml 27 G syringe used to inject 1 million cells intraperitoneally (i.p.) into syngeneic female C57Bl/6 mice.

[8] = mouse, in vivo
Procedure: (§2) SCC tumors were established by subcutaneous injection of 5 million PDVC57 cells into the right flank of syngeneic C57BL/6J mice. Seven days later, when tumors ranged from 4.5-5.5 mm in diameter, mice were evenly distributed among the treatment groups (N=5-10 mice/group, see below) and received intratumoral injections of vehicle (dH2O) or exatecan.
(§3) A 0.5-mL 31 G syringe (BD Insulin Syringe #328468) was used to deliver 0.1 mg or 0.2 mg exatecan in a 20-microliter volume, or 0.4 mg in a 40-microliter volume (because of solubility limitations). Control groups received an equal volume of sterile dH2O. The needle was placed into the tumor and the appropriate volume was slowly injected (approximately over 5 sec). The needle was held in place for 10 seconds after the injection was complete, then slowly removed while maintaining finger pressure on the injection site.

[9] = test system: SCC tumors (PDVC57 cells); experiment: Intratumoral injection of exatecan in PDVC57 SCC tumors (Example 1, Experiments 1 and 2): tumor outcome; type: in vivo, C57BL/6J mice; conditions: EXA 0.2 mg single intratumoral injection; of 6 mice harvested (4 not harvested)
[10] = Intratumoral injection of exatecan (Example 1): toxicity
Procedure: as §2, §3

[11] = 10 mg/mL, 0.02 mL single injection

## CC[C@@]1(O)C(=O)OCc2c1cc1n(c2=O)Cc2c-1nc1cc(F)c(C)c3c1c2[C@@H](N)CC3 [EXA, Exatecan mesylate]
[1]; 0.2 mg, the five mice not harvested on day 16
  Mice whose tumor progressed to 1 cm: one of the remaining five
[1]; 0.2-mg dose per animal
  Efficacy of treatment (summary): very effective
[1]; EXA 0.1 mg x2
  Tumor incidence: 57%
  Tumor incidence (mice): 4 of 7
[1]; EXA 0.1 mg x2, day 36
  Mice remaining (days post-treatment), no palpable tumor: 2 (day 36) -
[1]; EXA 0.1 mg x2, of 5 mice harvested (2 not harvested)
  Histology (N): mice with tumor: Tumor in 4
[1]; EXA 0.2 mg single injection, N=10
  Tumor incidence: 20%
[1]; EXA 0.2 mg single injection, day 53
  Mice remaining (days post-treatment), no palpable tumor: 4 (day 53) -
[1]; EXA 0.2 mg single injection, day 53, listed as exatecan
  Mice remaining (days post-treatment), no palpable tumor: four
[1]; EXA 0.4 mg single injection, day 36
  Mice remaining (days post-treatment), no palpable tumor: 1 (day 36) -
[1]; two doses of 0.1 mg per animal separated by 3 days
  Efficacy compared with single 0.2 mg dose: less effective
[2]; 1M phosphate buffer
  pH at which enhanced precipitation and decrease in solubility is shown: ≥ 7.12
[2]; Control (distilled water), 0% buffer A, 0% buffer B, pH 7
  Precipitate rating (Yes/No): No
[2]; EXA/DI water mixture added to phosphate buffer
  Onset of precipitation after addition to phosphate buffer: generally immediate
[2]; Sample 1: 100% buffer A, 0% buffer B, pH 4.3
  Precipitate rating (Yes/No): No
[2]; Sample 2: 90% buffer A, 10% buffer B, pH 5.6
  Precipitate rating (Yes/No): No
[2]; Sample 3: 80% buffer A, 20% buffer B, pH 6.1
  Precipitate rating (Yes/No): No
[2]; Sample 4: 70% buffer A, 30% buffer B, pH 6.4
  Precipitate rating (Yes/No): No
[2]; Sample 5: 60% buffer A, 40% buffer B, pH 6.7
  Precipitate rating (Yes/No): Yes
[2]; Sample 6: 50% buffer A, 50% buffer B, pH 7.0
  Precipitate rating (Yes/No): Yes
[2]; Sample 7: 40% buffer A, 60% buffer B, pH 7.2
  Precipitate rating (Yes/No): Yes
[2]; Sample 8: 30% buffer A, 70% buffer B, pH 7.5
  Precipitate rating (Yes/No): Yes
[2]; Sample 9: 20% buffer A, 80% buffer B, pH 7.8
  Precipitate rating (Yes/No): Yes
[2]; Sample 10: 10% buffer A, 90% buffer B, pH 8.2
  Precipitate rating (Yes/No): Yes
[2]; Sample 11: 0% buffer A, 100% buffer B, pH 9.6
  Precipitate rating (Yes/No): Yes
[3]; 10 mg/mL stock
  Dissolution in sterile dH2O: warming to 60 °C plus sonication and vortexing were needed
[3]; at 5 mg/mL
  Dissolution in sterile dH2O: dissolves immediately
[4]; [11]
  Mice remaining (day 66 post-treatment), no palpable tumor: 4 - no
  Tumor incidence overall: (20%)
  Tumor incidence overall (mice): 2 of 10
[4]; 10 mg/mL, 0.02 mL single injection, 4 mice not harvested
  Day 32 harvest for histology: tumor in: 1 of 1. 4
[4]; 10 mg/mL, 0.02 mL single injection, assessed at day 16 and day 66
  % of mice that eliminated their tumor: 80%
[4]; 10 mg/mL, 0.02 mL single intratumoral injection
  Day 16 harvest for histology: tumor in: 1 of 5
[4]; 5 mice per group
  Histological assessment: mice with no discernible tumor: 4 out of 5
[4]; single dose, histology
  Inflammation of surrounding tissue compared to vehicle-treated mice: decreased inflammation
  Tissue damage: minimal tissue damage
[5]; 10 mg/mL, 0.02 mL single injection, through day 77
  Mice with tumors that reached endpoint volume (1 cm^3): 4 of 10
[5]; 77 days post-treatment, 10 mg/mL, 0.02 mL
  Mantel-Cox log rank test p (survival vs dH2O vehicle): < 0.0001
[5]; Day 77 post-treatment
  Cure: 60%
  Mice remaining with no palpable tumor: 6 of the 10
[5]; day 22 post-treatment, 10 mg/mL, 0.02 mL
  Mice with a large tumor (clinical images): 1 of 10
[5]; the 4 mice that reached 1 cm^3
  Time at which tumors reached endpoint volume: 34-52 days post-treatment
[6]; 2.5 mg/mL, 0.02 mL, 14 days
  Tumor size compared to vehicle: almost complete reduction in tumor size
[6]; 5 mg/mL, 0.02 mL, 14 days
  Tumor size compared to vehicle: almost complete reduction in tumor size
[6]; 10 mg/mL, 0.02 mL, 14 days
  Tumor size compared to 1.25 mg/mL and vehicle: significantly reduced tumors
[6]; all doses administered (10, 5, 2.5, 1.25 mg/mL; 0.02 mL), 14 days post treatment
  Tumor size compared to vehicle: reduced tumor size
[7]
  Reduction of tumor burden (photon flux): 62.16%
[8]
  Tolerability compared with single 0.2 mg dose: less well tolerated
[9]
  Histology (N): mice with tumor: Tumor in 2
[10]; 0.4 mg per animal
  Toxicity (summary): lethality
[10]; EXA 0.1 mg x2 (day 0 and day 3), of 9 mice
  Toxicity: number of mice in which lethal: Lethal in 2 of
[10]; EXA 0.4 mg single injection, of 8 mice
  Toxicity: number of mice in which lethal: Lethal in 7 of
